These results are taken from patent US20240279207A1, “SUBSTITUTED ACYL SULFONAMIDES FOR TREATING CANCER” (The Broad Institute, Inc., priority 2020, published 2024).

Assay [1] concerns the target T1, Recombinant human His-tagged Kat6a protein (amino acids 194-810) (Homo sapiens, UniProt Q92794).
T1 construct: Kat6a protein (amino acids 194-810); His
Briefly: Kat6a activity assay (TR-FRET, acetylation of Histone-H4-derived peptide). The format is biochemical. The conditions noted are these: 60 mins at 22° C., 220 nM H4 peptide, 600 nM Acetyl Coenzyme A, read-out: KAT6A - DPF/HAT domain IC50 [mol/l] (arithmetic mean).

In assay [2] the test system is ESR1 transcription in MVLN cells. Briefly: MVLN reporter assay: repression of ESR1 transcription (luciferase signal). The class given is cell-based. The conditions noted are these: Homo sapiens, MVLN, 24 h, luciferase signal after 24 h, read-out: MVLN reporter assay, IC50 [M] (arithmetic mean). Put shortly: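 MVLN cells, expressing ER and stably carrying a vitellogenin A2 ERE-luciferase reporter, treated with compound in duplicate; luciferase read after 24 h with Steadylite plus. Cell density checked in parallel by Alamar Blue fluorescence (530/590 nm, 2 h) before the luciferase read.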

T1 sequence (Q92794 194-810): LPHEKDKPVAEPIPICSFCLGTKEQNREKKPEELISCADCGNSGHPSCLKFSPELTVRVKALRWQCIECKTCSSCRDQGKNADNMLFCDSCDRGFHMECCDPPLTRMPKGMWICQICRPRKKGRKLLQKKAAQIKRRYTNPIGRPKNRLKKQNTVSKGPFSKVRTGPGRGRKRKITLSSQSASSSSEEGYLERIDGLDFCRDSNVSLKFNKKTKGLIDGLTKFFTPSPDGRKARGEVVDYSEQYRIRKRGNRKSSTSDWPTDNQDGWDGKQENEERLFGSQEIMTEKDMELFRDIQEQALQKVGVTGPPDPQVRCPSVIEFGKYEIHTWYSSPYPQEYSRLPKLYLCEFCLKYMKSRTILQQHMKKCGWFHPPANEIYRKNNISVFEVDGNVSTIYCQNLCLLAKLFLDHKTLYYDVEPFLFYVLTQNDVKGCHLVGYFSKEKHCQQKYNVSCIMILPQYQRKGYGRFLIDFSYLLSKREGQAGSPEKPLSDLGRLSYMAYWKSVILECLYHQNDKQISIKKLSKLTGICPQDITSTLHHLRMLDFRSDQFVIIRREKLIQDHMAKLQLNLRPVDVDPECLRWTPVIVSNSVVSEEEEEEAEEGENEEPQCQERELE

On to `Cc1ccnc2c1c(S(=O)(=O)NC(=O)c1cc3c(F)cc(N4CCC4)cc3o1)nn2C` [Example 146, 6-(Azetidin-1-yl)-N-(1,4-dimethyl-1H-pyrazolo[3,4-b]pyridine-3-sulfonyl)-4-fluoro-1-benzofuran-2-carboxamide], for which the IC50 in assay [1] came to 290 nM; in assay [2], 2.83e-06 M.

Turning to `CCCc1ccc2nc(Cl)c(S(=O)(=O)NC(=O)c3cc4c(F)cc(N5CCC5)cc4o3)n2n1` [Example 147, 6-(Azetidin-1-yl)-N-(2-chloro-6-propylimidazo[1,2-b]pyridazine-3-sulfonyl)-4-fluoro-1-benzofuran-2-carboxamide], the IC50 came to 91.5 nM in assay [1] and 2.98e-06 M in assay [2].

Take `CCSc1nc2ccccn2c1S(=O)(=O)NC(=O)c1cc2c(F)cc(N3CCC3)cc2o1` [Example 148, 6-(Azetidin-1-yl)-N-[2-(ethylsulfanyl)imidazo[1,2-a]pyridine-3-sulfonyl]-4-fluoro-1-benzofuran-2-carboxamide]: the IC50 in assay [1] came to 274 nM; in assay [2] it was 3.14e-06 M.

As for `CSc1nc2ccccn2c1S(=O)(=O)NC(=O)c1cc2c(F)cc(N3CCC3)cc2o1` [Example 149, 6-(Azetidin-1-yl)-4-fluoro-N-[2-(methylsulfanyl)imidazo[1,2-a]pyridine-3-sulfonyl]-1-benzofuran-2-carboxamide], the IC50 in assay [1] worked out at 261 nM; in assay [2], 3.66e-06 M.

For `COc1cc(C)ccc1S(=O)(=O)NC(=O)c1cc2c(F)cc(N3CC(F)C3)cc2o1` [Example 158, 4-Fluoro-6-(3-fluoroazetidin-1-yl)-N-(2-methoxy-4-methylbenzene-1-sulfonyl)-1-benzofuran-2-carboxamide], the IC50 turned out to be 25.7 nM in assay [1] and 1.05e-07 M in assay [2].

Consider `O=C(NS(=O)(=O)c1cccc2c1OC(F)(F)C(F)(F)O2)c1cc2c(F)cc(N3CC(F)C3)cc2o1` [Example 159, 4-Fluoro-6-(3-fluoroazetidin-1-yl)-N-(2,2,3,3-tetrafluoro-2,3-dihydro-1,4-benzodioxine-5-sulfonyl)-1-benzofuran-2-carboxamide], for which the IC50 turned out to be 34.3 nM in assay [1] and 7.45e-07 M in assay [2].

Consider `CC(C)N(C)c1cc(F)c(S(=O)(=O)NC(=O)c2cc3c(F)cc(N4CC(F)C4)cc3o2)c(F)c1` [Example 164, N-{2,6-difluoro-4-[methyl(propan-2-yl)amino]benzene-1-sulfonyl}-4-fluoro-6-(3-fluoroazetidin-1-yl)-1-benzofuran-2-carboxamide], for which the values for the IC50 in assay [1] and in assay [2] were 251 nM and 2.34e-06 M, respectively.

Regarding `CC(C)N(C)c1cc(F)cc(F)c1S(=O)(=O)NC(=O)c1cc2c(F)cc(N3CC(F)C3)cc2o1` [Example 165, N-{2,4-difluoro-6-[methyl(propan-2-yl)amino]benzene-1-sulfonyl}-4-fluoro-6-(3-fluoroazetidin-1-yl)-1-benzofuran-2-carboxamide], the IC50 in assay [1] turned out to be 318 nM; in assay [2] it was 8.64e-07 M.

`CC(C)N(C)c1ccc(S(=O)(=O)NC(=O)c2cc3c(F)cc(N4CC(F)C4)cc3o2)c(F)c1F` [Example 166, N-{2,3-difluoro-4-[methyl(propan-2-yl)amino]benzene-1-sulfonyl}-4-fluoro-6-(3-fluoroazetidin-1-yl)-1-benzofuran-2-carboxamide]: the IC50 was found to be 362 nM in assay [1] and 7.22e-06 M in assay [2].

As for `CCS(=O)(=O)c1nc2ccccn2c1S(=O)(=O)NC(=O)c1cc2c(F)cc(N3CCC3)cc2o1` [Example 167, 6-(Azetidin-1-yl)-N-[2-(ethanesulfonyl)imidazo[1,2-a]pyridine-3-sulfonyl]-4-fluoro-1-benzofuran-2-carboxamide], the IC50 is 517 nM in assay [1] and greater than 2e-05 M in assay [2].

As to `O=C(NS(=O)(=O)c1cnc2c(Cl)cc(Cl)cn12)c1cc2c(F)cc(N3CCC3)cc2o1` [Example 168, 6-(Azetidin-1-yl)-N-(6,8-dichloroimidazo[1,2-a]pyridine-3-sulfonyl)-4-fluoro-1-benzofuran-2-carboxamide], the IC50 in assay [1] is 671 nM; in assay [2], greater than 2e-05 M.

`CC(C)Oc1ccc(Br)cc1S(=O)(=O)NC(=O)c1cc2c(F)cc(N3CCC3)cc2o1` [Example 170, 6-(azetidin-1-yl)-N-{5-bromo-2-[(propan-2-yl)oxy]benzene-1-sulfonyl}-4-fluoro-1-benzofuran-2-carboxamide]: the IC50 came to 10.5 nM in assay [1] and 1.33e-07 M in assay [2].

Take `O=C(NS(=O)(=O)c1cccc2c1OCCO2)c1cc2c(F)cc(N3CCC3)cc2o1` [Example 172, 6-(Azetidin-1-yl)-N-(2,3-dihydro-1,4-benzodioxine-5-sulfonyl)-4-fluoro-1-benzofuran-2-carboxamide]: the figures for the IC50 in assay [1] and in assay [2] were 34 nM and 1.35e-07 M, respectively.

With `Cc1ccc2cccnc2c1S(=O)(=O)NC(=O)c1cc2c(F)cc(N3CCC3)cc2o1` [Example 173, 6-(Azetidin-1-yl)-4-fluoro-N-(7-methylquinoline-8-sulfonyl)-1-benzofuran-2-carboxamide], the results for the IC50 in assay [1] and in assay [2] were 65.7 nM and 1.58e-07 M, respectively.

Take `COc1cc(Br)ccc1S(=O)(=O)NC(=O)c1cc2c(F)cc(N3CCC3)cc2o1` [Example 174, 6-(Azetidin-1-yl)-N-(4-bromo-2-methoxybenzene-1-sulfonyl)-4-fluoro-1-benzofuran-2-carboxamide]: the IC50 in assay [1] was 26.5 nM; in assay [2], 1.65e-07 M.

Take `Cc1cc(S(=O)(=O)NC(=O)c2cc3c(F)cc(N4CCC4)cc3o2)c2ncccc2c1` [Example 175, 6-(Azetidin-1-yl)-4-fluoro-N-(6-methylquinoline-8-sulfonyl)-1-benzofuran-2-carboxamide]: the IC50 in assay [1] was 44.9 nM; in assay [2], 1.65e-07 M.

`O=C(NS(=O)(=O)c1c[nH]c2ccccc12)c1cc2c(F)cc(N3CCC3)cc2o1` [Example 176, 6-(Azetidin-1-yl)-4-fluoro-N-(1H-indole-3-sulfonyl)-1-benzofuran-2-carboxamide]: the IC50 in assay [1] is 26.8 nM; in assay [2], 1.88e-07 M.

As for `O=C(NS(=O)(=O)c1cc(Br)cc2c1OCC2)c1cc2c(F)cc(N3CCC3)cc2o1` [Example 177, 6-(Azetidin-1-yl)-N-(5-bromo-2,3-dihydro-1-benzofuran-7-sulfonyl)-4-fluoro-1-benzofuran-2-carboxamide], the IC50 in assay [1] stood at 21.4 nM; in assay [2], 2.24e-07 M.

For `O=C(NS(=O)(=O)c1csc2ccccc12)c1cc2c(F)cc(N3CCC3)cc2o1` [Example 178, 6-(Azetidin-1-yl)-N-(1-benzothiophene-3-sulfonyl)-4-fluoro-1-benzofuran-2-carboxamide], the IC50 in assay [1] turned out to be 35.3 nM; in assay [2], 3.16e-07 M.

For `Cn1nc2cccc(S(=O)(=O)NC(=O)c3cc4c(F)cc(N5CCC5)cc4o3)c2n1` [Example 179, 6-(Azetidin-1-yl)-4-fluoro-N-(2-methyl-2H-benzotriazole-4-sulfonyl)-1-benzofuran-2-carboxamide], the IC50 in assay [1] was determined as 66.6 nM; in assay [2], 5.53e-07 M.

On to `COc1ccc(S(=O)(=O)NC(=O)c2cc3c(F)cc(N4CCC4)cc3o2)c2c1CCCC2` [Example 180, 6-(Azetidin-1-yl)-4-fluoro-N-(4-methoxy-5,6,7,8-tetrahydronaphthalene-1-sulfonyl)-1-benzofuran-2-carboxamide], for which the figures for the IC50 in assay [1] and in assay [2] were 35.9 nM and 6.28e-07 M, respectively.
